Source: patent US8735360B2 (priority 2009, dated 2014)
Positions of bridges follow the written chain, without caps; N, C: chain ends. Residues, ends and D or L forms follow the SMILES beside them.

Key:
GC-C [1] = target: T1, GC-C (Homo sapiens, UniProt P25092); type: cell-based; conditions: for Ratio EC50 pH 8/EC50 pH 5: cGMP response in T84 cells; for pH sensitivity with regard to binding and/or activation of GC-C: pH 5 versus pH 8
GC-C [2] = target: T1, GC-C; type: binding
female CD-1 mice = type: in vivo; conditions: oral gavage, % distance travelled by charcoal front in small intestine
[3] = system: ligated duodenal loops in rats; type: in vivo, rat; conditions: 2.5 μg of peptide per loop

T1 sequence (P25092 24-1073 limits assumed): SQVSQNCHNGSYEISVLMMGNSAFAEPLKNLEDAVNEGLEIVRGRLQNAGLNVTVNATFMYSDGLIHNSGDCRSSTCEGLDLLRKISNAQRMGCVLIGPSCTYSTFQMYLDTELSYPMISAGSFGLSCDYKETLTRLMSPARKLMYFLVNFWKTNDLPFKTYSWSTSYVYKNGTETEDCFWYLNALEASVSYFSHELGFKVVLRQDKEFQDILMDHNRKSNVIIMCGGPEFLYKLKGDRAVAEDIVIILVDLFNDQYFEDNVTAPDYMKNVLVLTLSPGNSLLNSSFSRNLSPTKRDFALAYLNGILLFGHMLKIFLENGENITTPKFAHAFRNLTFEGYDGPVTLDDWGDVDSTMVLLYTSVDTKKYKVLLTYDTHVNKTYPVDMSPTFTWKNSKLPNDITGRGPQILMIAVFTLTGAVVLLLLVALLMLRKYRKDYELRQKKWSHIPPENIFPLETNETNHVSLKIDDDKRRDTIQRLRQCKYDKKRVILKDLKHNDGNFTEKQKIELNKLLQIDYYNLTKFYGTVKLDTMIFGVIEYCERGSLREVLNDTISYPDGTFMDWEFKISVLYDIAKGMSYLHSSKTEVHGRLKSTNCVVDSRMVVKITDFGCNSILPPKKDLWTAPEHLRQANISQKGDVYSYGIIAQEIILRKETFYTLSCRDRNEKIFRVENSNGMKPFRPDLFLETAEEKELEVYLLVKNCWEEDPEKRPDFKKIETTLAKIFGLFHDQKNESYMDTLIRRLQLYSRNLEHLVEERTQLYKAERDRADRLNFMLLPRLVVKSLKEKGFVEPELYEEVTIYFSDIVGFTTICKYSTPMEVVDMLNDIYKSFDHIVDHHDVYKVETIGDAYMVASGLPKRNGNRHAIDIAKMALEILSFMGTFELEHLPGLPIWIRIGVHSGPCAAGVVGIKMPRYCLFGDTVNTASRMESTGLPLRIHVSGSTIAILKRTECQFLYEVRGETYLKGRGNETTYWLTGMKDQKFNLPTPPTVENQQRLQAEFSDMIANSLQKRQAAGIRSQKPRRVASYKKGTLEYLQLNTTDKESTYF

Structure (SMILES)	Ratio EC50 pH 8/EC50 pH 5 (GC-C [1])	pH sensitivity with regard to binding and/or activation of GC-C (GC-C [1])	Ratio Ki pH 8/Ki pH 5 (GC-C [2])	ED50 in the gastrointestinal transit assay (female CD-1 mice)	Rate of HCO3- accumulation [3]	Rate of fluid accumulation [3]
CC(C)C[C@@H]1NC(=O)[C@H](CCC(=O)O)NC(=O)[C@@H]2CSSC[C@@H]3NC(=O)[C@H](C)NC(=O)[C@@H]4CCCN4C(=O)[C@H](CC(N)=O)NC(=O)[C@H](CSSC[C@H](N)C(=O)N2)NC(=O)[C@H](CSSC[C@@H](C(=O)N[C@@H](Cc2ccc(O)cc2)C(=O)O)NC(=O)CNC(=O)[C@H]([C@@H](C)O)NC3=O)NC1=O [Peptide 1, CCELCCNPACTGCY] (H-CCELCCNPACTGCY-OH; disulfide 1-6, 2-10, 5-13 (inferred); N-terminus and C-terminus assumed)	8.5	little or no pH sensitivity	0.69	0.43 µg/kg	80 neq/min/cm	2.0 µL/min/cm
C[C@@H]1NC(=O)[C@@H]2CCCN2C(=O)[C@H](CC(N)=O)NC(=O)[C@@H]2CSSC[C@H](N)C(=O)N[C@H]3CSSC[C@H](NC1=O)C(=O)N[C@@H]([C@@H](C)O)C(=O)NCC(=O)N[C@H](C(=O)N[C@@H](Cc1ccc(O)cc1)C(=O)O)CSSC[C@H](NC(=O)[C@H](Cc1ccccc1)NC(=O)[C@H](CCC(=O)O)NC3=O)C(=O)N2 [Peptide 2, CCEFCCNPACTGCY] (H-CCEFCCNPACTGCY-OH; disulfide 1-6, 2-10, 5-13)	13.2	little or no pH sensitivity	0.97	2.06 µg/kg	80 neq/min/cm	2.0 µL/min/cm
C[C@@H]1NC(=O)[C@@H]2CCCN2C(=O)[C@H](CC(N)=O)NC(=O)[C@@H]2CSSC[C@H](NC(=O)[C@H](CC(=O)O)NC(=O)[C@H](CC(=O)O)NC(=O)[C@@H](N)CC(N)=O)C(=O)N[C@H]3CSSC[C@H](NC1=O)C(=O)N[C@@H]([C@@H](C)O)C(=O)NCC(=O)N[C@H](C(=O)N[C@@H](Cc1ccc(O)cc1)C(=O)O)CSSC[C@H](NC(=O)[C@H](Cc1ccc(O)cc1)NC(=O)[C@H](CCC(=O)O)NC3=O)C(=O)N2 [Peptide 3, NDDCCEYCCNPACTGCY] (H-NDDCCEYCCNPACTGCY-OH; disulfide 4-9, 5-13, 8-16 (inferred); N-terminus and C-terminus assumed)	25.3	–	17.5	–	–	–
C[C@@H]1NC(=O)[C@@H]2CCCN2C(=O)[C@H](CC(N)=O)NC(=O)[C@@H]2CSSC[C@H](NC(=O)[C@H](CC(=O)O)NC(=O)[C@@H](N)CC(=O)O)C(=O)N[C@H]3CSSC[C@H](NC1=O)C(=O)N[C@@H]([C@@H](C)O)C(=O)NCC(=O)N[C@H](C(=O)N[C@@H](Cc1ccc(O)cc1)C(=O)O)CSSC[C@H](NC(=O)[C@H](Cc1ccc(O)cc1)NC(=O)[C@H](CCC(=O)O)NC3=O)C(=O)N2 [Peptide 4, DDCCEYCCNPACTGCY] (H-DDCCEYCCNPACTGCY-OH; disulfide 3-8, 4-12, 7-15 (inferred); N-terminus and C-terminus assumed)	48.0	–	5.27	6.3 µg/kg	80 neq/min/cm	2.0 µL/min/cm
C[C@@H]1NC(=O)[C@@H]2CCCN2C(=O)[C@H](CC(N)=O)NC(=O)[C@@H]2CSSC[C@H](NC(=O)[C@H](CC(=O)O)NC(=O)[C@H](CC(=O)O)NC(=O)[C@@H](N)CC(=O)O)C(=O)N[C@H]3CSSC[C@H](NC1=O)C(=O)N[C@@H]([C@@H](C)O)C(=O)NCC(=O)N[C@H](C(=O)N[C@@H](Cc1ccc(O)cc1)C(=O)O)CSSC[C@H](NC(=O)[C@H](Cc1ccc(O)cc1)NC(=O)[C@H](CCC(=O)O)NC3=O)C(=O)N2 [Peptide 5, DDDCCEYCCNPACTGCY]	256	–	5.52	7.54 µg/kg	–	–
C[C@@H]1NC(=O)[C@@H]2CCCN2C(=O)[C@H](CC(N)=O)NC(=O)[C@@H]2CSSC[C@H](NC(=O)[C@H](CC(=O)O)NC(=O)[C@H](CC(=O)O)NC(=O)CN)C(=O)N[C@H]3CSSC[C@H](NC1=O)C(=O)N[C@@H]([C@@H](C)O)C(=O)NCC(=O)N[C@H](C(=O)N[C@@H](Cc1ccc(O)cc1)C(=O)O)CSSC[C@H](NC(=O)[C@H](Cc1ccc(O)cc1)NC(=O)[C@H](CCC(=O)O)NC3=O)C(=O)N2 [Peptide 7, GDDCCEYCCNPACTGCY] (H-GDDCCEYCCNPACTGCY-OH; disulfide 4-9, 5-13, 8-16 (inferred); N-terminus and C-terminus assumed)	383	–	–	–	–	–
C[C@@H]1NC(=O)[C@@H]2CCCN2C(=O)[C@H](CC(N)=O)NC(=O)[C@@H]2CSSC[C@H](NC(=O)[C@H](CC(=O)O)NC(=O)[C@H](CC(=O)O)NC(=O)[C@@H]3CCCN3)C(=O)N[C@H]3CSSC[C@H](NC1=O)C(=O)N[C@@H]([C@@H](C)O)C(=O)NCC(=O)N[C@H](C(=O)N[C@@H](Cc1ccc(O)cc1)C(=O)O)CSSC[C@H](NC(=O)[C@H](Cc1ccc(O)cc1)NC(=O)[C@H](CCC(=O)O)NC3=O)C(=O)N2 [Peptide 8, PDDCCEYCCNPACTGCY] (H-PDDCCEYCCNPACTGCY-OH; disulfide 4-9, 5-13, 8-16)	58.2	–	–	–	–	–
C[C@H](N)C(=O)N[C@@H](CC(=O)O)C(=O)N[C@@H](CC(=O)O)C(=O)N[C@H]1CSSC[C@@H]2NC(=O)[C@@H]3CSSC[C@@H](C(=O)N[C@@H](Cc4ccc(O)cc4)C(=O)O)NC(=O)CNC(=O)[C@H]([C@@H](C)O)NC(=O)[C@H](CSSC[C@H](NC1=O)C(=O)N[C@@H](CCC(=O)O)C(=O)N[C@@H](Cc1ccc(O)cc1)C(=O)N3)NC(=O)[C@H](C)NC(=O)[C@@H]1CCCN1C(=O)[C@H](CC(N)=O)NC2=O [Peptide 9, ADDCCEYCCNPACTGCY]	79.8	–	1.29	–	–	–
CC(C)C[C@@H]1NC(=O)[C@H](CCC(=O)O)NC(=O)[C@@H]2CSSC[C@@H]3NC(=O)[C@H](C)NC(=O)[C@@H]4CCCN4C(=O)[C@H](CC(N)=O)NC(=O)[C@H](CSSC[C@H](NC(=O)[C@H](CC(=O)O)NC(=O)[C@H](CC(=O)O)NC(=O)[C@@H](N)CC(N)=O)C(=O)N2)NC(=O)[C@H](CSSC[C@@H](C(=O)N[C@@H](Cc2ccc(O)cc2)C(=O)O)NC(=O)CNC(=O)[C@H]([C@@H](C)O)NC3=O)NC1=O [Peptide 11, NDDCCELCCNPACTGCY]	2.7	–	6.43	–	–	–
CC(C)C[C@@H]1NC(=O)[C@H](CCC(=O)O)NC(=O)[C@@H]2CSSC[C@@H]3NC(=O)[C@H](C)NC(=O)[C@@H]4CCCN4C(=O)[C@H](CC(N)=O)NC(=O)[C@H](CSSC[C@H](NC(=O)[C@H](CC(=O)O)NC(=O)[C@H](CC(=O)O)NC(=O)[C@H](C)N)C(=O)N2)NC(=O)[C@H](CSSC[C@@H](C(=O)N[C@@H](Cc2ccc(O)cc2)C(=O)O)NC(=O)CNC(=O)[C@H]([C@@H](C)O)NC3=O)NC1=O [Peptide 13, ADDCCELCCNPACTGCY]	62.5	–	–	–	–	–
CC(C)C[C@@H]1NC(=O)[C@H](CCC(=O)O)NC(=O)[C@@H]2CSSC[C@@H]3NC(=O)[C@H](C)NC(=O)[C@@H]4CCCN4C(=O)[C@H](CC(N)=O)NC(=O)[C@H](CSSC[C@H](NC(=O)[C@H](CC(=O)O)NC(=O)[C@@H](N)CC(=O)O)C(=O)N2)NC(=O)[C@H](CSSC[C@@H](C(=O)N[C@@H](Cc2ccc(O)cc2)C(=O)O)NC(=O)CNC(=O)[C@H]([C@@H](C)O)NC3=O)NC1=O [Peptide 16, DDCCELCCNPACTGCY] (H-DDCCELCCNPACTGCY-OH; disulfide 3-8, 4-12, 7-15 (inferred); N-terminus and C-terminus assumed)	26.9	–	–	–	–	–
CC(C)C[C@@H]1NC(=O)[C@H](CCC(=O)O)NC(=O)[C@@H]2CSSC[C@@H]3NC(=O)[C@H](C)NC(=O)[C@@H]4CCCN4C(=O)[C@H](CC(N)=O)NC(=O)[C@H](CSSC[C@H](NC(=O)[C@H](CC(=O)O)NC(=O)[C@H](CC(=O)O)NC(=O)[C@@H](N)CC(=O)O)C(=O)N2)NC(=O)[C@H](CSSC[C@@H](C(=O)N[C@@H](Cc2ccc(O)cc2)C(=O)O)NC(=O)CNC(=O)[C@H]([C@@H](C)O)NC3=O)NC1=O [Peptide 17, DDDCCELCCNPACTGCY]	386.2	–	6.35	2.9 µg/kg	–	1.8 µL/min/cm
CC(C)C[C@@H]1NC(=O)[C@H](CCC(=O)O)NC(=O)[C@@H]2CSSC[C@@H]3NC(=O)[C@H](C)NC(=O)[C@@H]4CCCN4C(=O)[C@H](CC(N)=O)NC(=O)[C@H](CSSC[C@H](NC(=O)[C@H](CC(=O)O)NC(=O)[C@H](CC(=O)O)NC(=O)[C@@H]4CCCN4)C(=O)N2)NC(=O)[C@H](CSSC[C@@H](C(=O)N[C@@H](Cc2ccc(O)cc2)C(=O)O)NC(=O)CNC(=O)[C@H]([C@@H](C)O)NC3=O)NC1=O [Peptide 18, PDDCCELCCNPACTGCY] (H-PDDCCELCCNPACTGCY-OH; disulfide 4-9, 5-13, 8-16 (inferred); N-terminus and C-terminus assumed)	205.2	–	–	–	–	–
CC(C)C[C@@H]1NC(=O)[C@H](CCC(=O)O)NC(=O)[C@@H]2CSSC[C@@H]3NC(=O)[C@H](C)NC(=O)[C@@H]4CCCN4C(=O)[C@H](CC(N)=O)NC(=O)[C@H](CSSC[C@H](NC(=O)[C@H](CC(=O)O)NC(=O)[C@H](CC(=O)O)NC(=O)CN)C(=O)N2)NC(=O)[C@H](CSSC[C@@H](C(=O)N[C@@H](Cc2ccc(O)cc2)C(=O)O)NC(=O)CNC(=O)[C@H]([C@@H](C)O)NC3=O)NC1=O [Peptide 19, GDDCCELCCNPACTGCY] (H-GDDCCELCCNPACTGCY-OH; disulfide 4-9, 5-13, 8-16 (inferred); N-terminus and C-terminus assumed)	61.5	–	–	–	–	–
CC(C)C[C@@H]1NC(=O)[C@H](CCC(=O)O)NC(=O)[C@@H]2CSSC[C@@H]3NC(=O)[C@H](C)NC(=O)[C@@H]4CCCN4C(=O)[C@H](CC(N)=O)NC(=O)[C@H](CSSC[C@H](NC(=O)[C@H](CC(=O)O)NC(=O)[C@H](CC(=O)O)NC(=O)[C@@H](N)CC(=O)O)C(=O)N2)NC(=O)[C@H](CSSC[C@@H](C(=O)O)NC(=O)CNC(=O)[C@H]([C@@H](C)O)NC3=O)NC1=O [Peptide 20, DDDCCELCCNPACTGC] (H-DDDCCELCCNPACTGC-OH; disulfide 4-9, 5-13, 8-16 (inferred); N-terminus and C-terminus assumed)	90	–	3.6	–	–	–
